Our source for the LogP and chromatographic logP values is patent publication US12642270B2, “Substituted thiophene carboxamides, thiophene carboxylic acids and derivatives thereof” (Bayer Aktiengesellschaft, priority 2019, dated 2026).

For orientation: chromatographic logP means lipophilicity estimated from chromatographic retention. Read a high chromatographic logP as a more lipophilic compound.

The first series in a line: Log P by HPLC on reversed phase columns (EEC directive 79/831 Annex V.A8). It is filed as physicochemical. To be noted: method [a]: LC-UV, acidic range, 0.1% formic acid in water and acetonitrile. In short, it runs like this: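 Reversed-phase HPLC per EEC 79/831 Annex V.A8, LC-UV with 10→95% acetonitrile linear gradient; eluent [a] 0.1% formic acid (acidic), [b] 0.001 M ammonium acetate (neutral), [c] 0.1% phosphoric acid (acidic). Calibrated with C3–C16 straight-chain alkan-2-ones, linear interpolation of retention times; multiple values joined by "+".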
With `O=C(NC1CCSC1=O)c1sc(Br)c(Br)c1F` (stereo not drawn) [I.0006], the LogP is 2.84^[a].

Regarding `O=C(N[C@H]1CCSC1=O)c1sc(Br)c(Br)c1F` [I.0017], the LogP was 2.89^[a].

In the case of `O=C(NC1CCCNC1=O)c1sc(Br)c(Br)c1F` (stereo not drawn) [I.0061], the LogP was 2.01^[a].

For the compound `CC[C@H](C)[C@H](NC(=O)c1sc(Cl)c(Br)c1C)C(=O)OC` [I.0123], the LogP was 4.27^[a].

For `CC[C@H](C)[C@H](NC(=O)c1sc(Br)c(Br)c1F)C(=O)OC` [I.0141], the LogP was 4.37^[a].

For the compound `O=C(NC1CCNC1=O)c1cc(Cl)c(Br)s1` (stereo not drawn) [I.0218], the LogP was 1.71^[a].

In the case of `O=C1CC(NC(=O)c2cc(Cl)c(Br)s2)CCN1` (stereo not drawn) [I.0219], the LogP was 1.77^[a].

On to `O=C(NC1CCOC1=O)c1cc(Cl)c(Br)s1` (stereo not drawn) [I.0220], for which the LogP was 2.09^[a].

Turning to `O=C1CC(NC(=O)c2cc(Cl)c(Br)s2)CN1` (stereo not drawn) [I.0221], the LogP was 1.71^[a].

Turning to `O=C(NC1CCNC1=O)c1cc(Br)c(Cl)s1` (stereo not drawn) [I.0222], the LogP is 1.73^[a].

For `O=C1CC(NC(=O)c2cc(Br)c(Cl)s2)CCN1` (stereo not drawn) [I.0223], the LogP is 1.80^[a].

Take `O=C(NC1CCOC1=O)c1cc(Br)c(Cl)s1` (stereo not drawn) [I.0224]: the LogP is 2.14^[a].

Consider `O=C1CC(NC(=O)c2cc(Br)c(Cl)s2)CN1` (stereo not drawn) [I.0225], for which the LogP is 1.73^[a].

Take `CCC(C)C(NC(=O)c1sc(Br)c(Br)c1F)C(=O)O` (stereo not drawn) [I.0235]: the LogP is 3.40^[a].

As to `CC[C@H](C)[C@H](NC(=O)c1sc(Br)c(Cl)c1C)C(=O)OC` [I.0322], the LogP is 4.25^[a].

Turning to `COC(=O)[C@H](Cc1ccccc1)NC(=O)[C@H](CC(=O)O)NC(=O)c1sc(Br)c(Br)c1F` [I.0338], the LogP was 2.98^[a].

Regarding `COC(=O)C(Cc1ccccc1)NC(=O)C(CC(=O)O)NC(=O)c1sc(Br)c(Cl)c1C` (stereo not drawn) [I.0339], the LogP is 3.09^[a].

As to `COC(=O)[C@H](Cc1ccccc1)NC(=O)[C@H](CC(=O)O)NC(=O)c1sc(Cl)c(Br)c1C` [I.0340], the LogP is 3.13^[a].

As for `COC(=O)C(Cc1ccccc1)NC(=O)C(CC(=O)O)NC(=O)c1sc(Cl)c(Cl)c1Br` (stereo not drawn) [I.0487], the LogP was 3.23^[a].

Consider `COC(=O)[C@H](Cc1ccccc1)NC(=O)[C@H](CC(=O)O)NC(=O)c1sc(Br)c(Br)c1Cl` [I.0488], for which the LogP is 3.20^[a].

Consider `COC(=O)C(Cc1ccccc1)NC(=O)C(CC(=O)O)NC(=O)c1sc(C#N)c(Br)c1C` (stereo not drawn) [I.0501], for which the LogP was 2.70^[a].

For the compound `O=C(N[C@H]1CCSC1=O)c1sc(Cl)c(Br)c1Cl` [I.0525], the LogP was 3.28^[a].

As for `CCOC(=O)C(C)(C)NC(=O)C(C)(C)NC(=O)c1sc(Cl)c(Br)c1Br` [I.0699], the LogP is 3.94^[a].

As for `O=C(NC1CCOC1=O)c1sc(Cl)c(Cl)c1C(F)F` (stereo not drawn) [I.0747], the LogP is 2.40^[a].

`Cc1c(C(=O)N[C@H]2CCOC2=O)sc(C#N)c1Br` [I.0761]: the LogP was 1.94^[a].

With `Cc1c(C(=O)N[C@H]2CCOC2=O)sc(Cl)c1Br` [I.0762], the LogP is 2.45^[a].

On to `Cc1c(C(=O)N[C@H]2CCOC2=O)sc(Br)c1Cl` [I.0763], for which the LogP was 2.42^[a].

Consider `O=C(N[C@H]1CNC1=O)c1sc(Cl)c(Cl)c1Br` [I.0808], for which the LogP is 2.03^[a].

Regarding `N#Cc1c(C(=O)NC2CCOC2=O)sc(Cl)c1Cl` (stereo not drawn) [I.0818], the LogP is 2.02^[a].

With `N#Cc1sc(C(=O)NC2CCOC2=O)c(Cl)c1Cl` (stereo not drawn) [I.0819], the LogP is 2.05^[a].

Turning to `Cc1c(C(=O)NC2CCOC2=O)sc(Cl)c1Br` (stereo not drawn) [I.0820], the LogP is 2.48^[a].

For the compound `Cc1c(C(=O)NC2CCSC2=O)sc(Br)c1Cl` (stereo not drawn) [I.0822], the LogP is 3.46^[a].

As for `Cc1c(C(=O)NC2CCOC2=O)sc(Br)c1Cl` (stereo not drawn) [I.0825], the LogP was 2.45^[a].

As to `Cc1c(C(=O)NC2CCSC2=O)sc(C#N)c1Br` (stereo not drawn) [I.0829], the LogP was 2.45^[a].

On to `O=C(NC1CCOC1=O)c1sc(Cl)c(Cl)c1Br` (stereo not drawn) [I.0839], for which the LogP is 2.63^[a].

Consider `Cc1c(C(=O)N[C@H]2CCSC2=O)sc(C#N)c1Br` [I.0866], for which the LogP was 2.39^[a].

Regarding `O=C(N[C@H]1CCSC1=O)c1sc(Br)c(Br)c1Cl` [I.0867], the LogP was 3.24^[a].

In the case of `N#CC1(NC(=O)c2sc(Br)c(Br)c2Cl)CCC(C2CCCCC2)CC1` (stereo not drawn) [I.0869], the LogP is 6.46^[a].

With `N#CC1(NC(=O)c2sc(Br)c(Br)c2Cl)CCC(c2ccccc2)CC1` (stereo not drawn) [I.0870], the LogP was 4.97^[a].

In the case of `O=C(N[C@H]1CCOC1=O)c1sc(Cl)c(Cl)c1Br` [I.0931], the LogP is 2.59^[a].

Consider `O=C(N[C@H]1CCOC1=O)c1sc(Br)c(Br)c1Cl` [I.0932], for which the LogP is 2.62^[a].

Take `O=C(N[C@H]1CCCNC1=O)c1sc(Cl)c(Br)c1Cl` [I.0939]: the LogP was 2.29^[a].

With `O=C(N[C@H]1CCCNC1=O)c1sc(Cl)c(Cl)c1Br` [I.0944], the LogP was 2.30^[a].

On to `O=C(NC1CCCCNC1=O)c1sc(Cl)c(Cl)c1Br` (stereo not drawn) [I.0945], for which the LogP was 2.99^[a].

Turning to `O=C(NC1CCOC1=O)c1sc(Cl)c(Br)c1Cl` (stereo not drawn) [I.0949], the LogP was 2.56^[a].

Regarding `O=C(N[C@H]1CCCNC1=O)c1sc(Br)c(Br)c1F` [I.0950], the LogP was 2.05^[a].

As to `O=C(NC1CCCCNC1=O)c1sc(Br)c(Br)c1F` (stereo not drawn) [I.0951], the LogP was 2.68^[a].

On to `O=C(N[C@H]1CCCNC1=O)c1sc(Br)c(Br)c1Cl` [I.0956], for which the LogP was 2.31^[a].

`O=C(NC1CCCCNC1=O)c1sc(Br)c(Br)c1Cl` (stereo not drawn) [I.0957]: the LogP is 2.99^[a].

Consider `O=C(NC1CCSC1=O)c1sc(Br)c(Br)c1Cl` (stereo not drawn) [I.1005], for which the LogP was 3.25^[a].

On to `O=C(NC1CCSC1=O)c1sc(Cl)c(Cl)c1Br` (stereo not drawn) [I.1006], for which the LogP is 3.25^[a].

Regarding `N#CC1(NC(=O)c2sc(Br)c(Br)c2F)CCC(c2ccccc2)CC1` (stereo not drawn) [I.1009], the LogP is 4.78^[a].

For `O=C(N[C@H]1CCSC1=O)c1sc(Cl)c(Cl)c1Br` [I.1011], the LogP is 3.24^[a].

As to `N#CC1(NC(=O)c2sc(Br)c(Br)c2F)CCC(C2CCCCC2)CC1` (stereo not drawn) [I.1012], the LogP is 6.13^[a].

In the case of `O=C(NC1CCOC1=O)c1sc(Br)c(Br)c1Cl` (stereo not drawn) [I.1031], the LogP was 2.58^[a].

As for `Cc1c(C(=O)NC2CCOC2=O)sc(C#N)c1Br` (stereo not drawn) [I.1034], the LogP was 1.92^[a].

Consider `O=C(NC1CCOC1=O)c1sc(Br)c(Br)c1C(F)F` (stereo not drawn) [I.1066], for which the LogP is 2.46^[a].

The same series, now with this note: method [a]: LC-UV, acidic range, 0.1% formic acid in water and acetonitrile; listed as 1.0023.
Turning to `Cc1c(C(=O)NC2CCSC2=O)sc(Cl)c1Br` (stereo not drawn) [I.0023], the LogP is 2.99^[a].

Still in this series, the particulars now being: method [a]: LC-UV, acidic range, 0.1% formic acid in water and acetonitrile; listed as 1.0060.
Regarding `O=C(NC1CCOC1=O)c1sc(Br)c(Br)c1F` (stereo not drawn) [I.0060], the LogP was 2.25^[a].

Staying with this series, now noted: method [a]: LC-UV, acidic range, 0.1% formic acid in water and acetonitrile; listed as 1.0821.
Turning to `Cc1c(C(=O)NC2CCSC2=O)sc(Cl)c1Br` (stereo not drawn) [I.0821], the LogP is 3.03^[a].

The same series, now with this note: method [a]: LC-UV, acidic range, 0.1% formic acid in water and acetonitrile; listed as 1.0958.
Consider `O=C(NC1CCOC1=O)c1sc(Br)c(Br)c1F` (stereo not drawn) [I.0958], for which the LogP was 2.28^[a].

The same series, now with this note: method marker [a] given with each value; Table 1.1, compounds of formula (I).
On to `COC(=O)C(NC(=O)c1sc(Br)c(Br)c1C(F)F)C(=O)OC` [1.1067], for which the LogP was 3.05^[a].

In the case of `CCOC(=O)C(CO)NC(=O)c1sc(Cl)c(Cl)c1C(F)F` (stereo not drawn) [1.1068], the LogP is 2.67^[a].

For `COC(=O)C(CCSC)NC(=O)c1sc(Cl)c(Cl)c1C(F)F` (stereo not drawn) [1.1069], the LogP is 3.52^[a].

In the case of `COC(=O)C(C)(C)NC(=O)c1sc(Cl)c(Cl)c1C(F)F` [1.1070], the LogP is 3.16^[a].

Staying with this series, now noted: reversed phase HPLC columns, value in preparation example, method not marked.
As for `CCOC(=O)CNC(=O)c1sc(C#N)c(Br)c1C` [I.0024, ethyl N-[(4-bromo-5-cyano-3-methyl-2-thienyl)carbonyl]glycinate], the chromatographic logP turned out to be 2.4.

`CCSC(=O)C1(NC(=O)c2sc(Br)c(Br)c2I)CC1` [I.0139, S-ethyl 1-{[(4,5-dibromo-3-iodo-2-thienyl)carbonyl]amino}cyclopropanecarbothioate]: the chromatographic logP is 3.96.

Turning to `O=C(NC1(C(=O)O)CCC1)c1sc(Br)c(Br)c1F` [I.0172, 1-{[(4,5-dibromo-3-fluoro-2-thienyl)carbonyl]amino}cyclobutanecarboxylic acid], the chromatographic logP was found to be 2.57.

`O=C(O)CNC(=O)c1sc(Br)c(Br)c1F` [I.0227, N-[(4,5-dibromo-3-fluoro-2-thienyl)carbonyl]glycine] yielded a chromatographic logP of 1.97.

`CCOC(=O)[C@H](CC(C)C)NC(=O)c1sc(Cl)c(Cl)c1C#N` [I.0279, ethyl N-[(4,5-dichloro-3-cyano-2-thienyl)carbonyl]leucinate]: the chromatographic logP was 4.05.

With `CCOC(=O)CNC(=O)c1sc(Br)c(Br)c1F` [I.0449, ethyl N-[(4,5-dibromo-3-fluoro-2-thienyl)carbonyl]glycinate], the chromatographic logP amounted to 2.97.

Consider `CCOC(=O)CNC(=O)c1sc(C)c(Cl)c1F` [I.0793, ethyl N-[(4-chloro-3-fluoro-5-methyl-2-thienyl)carbonyl]glycinate], for which the chromatographic logP amounted to 2.54.

For the compound `NC(=O)CNC(=O)c1sc(Br)c(Br)c1F` [I.0894, N-(2-amino-2-oxoethyl)-4,5-dibromo-3-fluorothiophene-2-carboxamide], the chromatographic logP was 1.69.

The compound `NC(=S)CNC(=O)c1sc(Br)c(Br)c1F` [I.0896, N-(2-amino-2-sulfanylideneethyl)-4,5-dibromo-3-fluorothiophene-2-carboxamide] had a chromatographic logP of 2.25.

For `CCOC(=O)C(C)(C)NC(=O)c1sc(Cl)c(Cl)c1Br` [I.1062, ethyl N-[(3-bromo-4,5-dichloro-2-thienyl)carbonyl]-2-methylalaninate], the chromatographic logP stood at 4.24.
